Assay results as given in US11274106B2, “Topoisomerase inhibitors with antibacterial and anticancer activity” (THE BOARD OF TRUSTEES OF THE UNIVERSITY OF ILLINOIS, priority 2017, dated 2022).
Values after ≈ are worked out from the molar mass of the structure shown. “Also recorded” adds a separate entry of the source. Like-named read-outs stand apart in the source and are kept apart here.

Experiments:
S. aureus = assay: Antibacterial MIC, microbroth dilution, S. aureus; assay type: cell-based; details: for MIC: Staphylococcus aureus
Protocol: (§1) To investigate this possibility, the antibacterial effects of the DNM derivatives was assessed against strains of E. coli, S. aureus, and MRSA using the microbroth dilution method (Table 2).

MRSA = assay: Antibacterial MIC, microbroth dilution, MRSA; assay type: cell-based, S. aureus; details: for MIC: Staphylococcus aureus, MRSA, microbroth dilution
Protocol: as §1

E. coli = assay: Antibacterial MIC, microbroth dilution, E. coli; assay type: cell-based; details: for MIC: Escherichia coli
Protocol: as §1

[1] = tested on: MDA-MB-231 triple negative breast cancer cells; assay: Antiproliferative SRB assay, MDA-MB-231; assay type: cell-based; details: for IC50: mean ± SEM
Protocol: FIG. 1. […] Cell death measured by SRB assay after 72 hour of compound exposure (n≥3 biological replicates, error bars show SEM). IC50 values given as mean±SEM from ≥3 biological replicates.
To investigate the feasibility of developing a class of antitumor antibiotics based upon the DNM scaffold, the ability of the DNM to exert an antiproliferative effect against MDA-MB-231 breast cancer cells was evaluated.

panel of cancer cells = assay: Average over panel of 10 cancer cell lines; assay type: cell-based; details: 72 hour, read-out: Average (mean) IC50 over the cell line panel
Text: (§2) Topoisomerase inhibitors such as DOX are used as single agent and in combination therapy to treat a wide-range of cancer types.

HeLa = assay: Antiproliferative SRB assay, HeLa; assay type: cell-based; details: Homo sapiens, 72 h, Ovarian cancer (footnote e), mean ± SEM
Text: as §2

HOS = assay: Antiproliferative SRB assay, HOS; assay type: cell-based; details: Homo sapiens, 72 h, Osteosarcoma, mean ± SEM
Text: as §2

IMR32 = assay: Antiproliferative SRB assay, IMR32; assay type: cell-based; details: Homo sapiens, IMR-32, 72 h, Neuroblastoma, mean ± SEM
Text: as §2

ES-2 = assay: Antiproliferative SRB assay, ES-2; assay type: cell-based; details: Homo sapiens, ES-2, 72 h, Cervical cancer (footnote f), mean ± SEM
Text: as §2

HCT-116 = assay: Antiproliferative SRB assay, HCT-116; assay type: cell-based; details: Homo sapiens, HCT-116, 72 h, Colon cancer, mean ± SEM
Text: as §2

Jurkat = assay: Cell viability Alamar Blue assay, Jurkat; assay type: cell-based; details: Homo sapiens, 72 h, Leukemia, mean ± SEM
Text: as §2

HL-60 = assay: Cell viability Alamar Blue assay, HL-60; assay type: cell-based; details: Homo sapiens, HL-60, 72 h, Leukemia, mean ± SEM
Text: as §2

H460 = assay: Antiproliferative SRB assay, H460; assay type: cell-based; details: Homo sapiens, NCI-H460, 72 h, Lung cancer, mean ± SEM
Text: as §2

BT-474 = assay: Antiproliferative SRB assay, BT-474; assay type: cell-based; details: Homo sapiens, BT-474, 72 h, Breast cancer, mean ± SEM
Text: as §2

Top2cc = target: T1, Top2cc (Homo sapiens, UniProt P11388); assay: ICE assay for Top2α-DNA complexes in H460 cells; assay type: cell-based; details: 50 μM
T1 construct: endogenous in cells; host or cells: H460
Text: FIG. 3. DNM derivatives are dual Top1/Top2 inhibitors with different modes of inhibition. (a) Inhibition of decatenating ability of Top2α with increasing concentrations of ETP, 6DNM-NH3, 6DNM-Pyr, and Ph-6DNM-NH3. K, kinetoplast DNA; OC, open circular; R, relaxed. (b) Inhibition of relaxing ability of Top1 with increasing concentrations of CPT, 6DNM-NH3, 6DNM-Pyr, and Ph-6DNM-NH3. R, relaxed; S, supercoiled. (c) Detection of Top2a-DNA using the ICE Assay. Genomic DNA ([…]) of H460 cells treated with drugs (50 μM, 30 min) was applied to nitrocellulose membrane and immunoblotted for Top2a. (d) Detection of Top1-DNA adducts using ICE Assay. Same procedure as (c) using 1 μg of DNA. (e) Inhibition of ETP-induced poisoning of Top2a. H460 cells treated with indicated concentrations of inhibitor for 30 min prior to treatment with ETP (50 μM). Detection of Top2α as in (c).
The in vivo complex of enzyme (ICE) assay can be used to distinguish poisons from catalytic inhibitors. The ICE assay consists of isolating the genomic DNA of cells treated with small molecules in a manner the preserves covalent DNA-protein complexes and applying it to nitrocellulose membranes. Because topoisomerase poisons stabilize the cleavage complexes, DNA-protein complexes can be detected by immunoblotting for specific topoisomerases, whereas catalytic inhibitors produce no such result. To determine if DNM derivatives are acting as poisons or catalytic inhibitors, H460 human lung cells were exposed to 50 μM of the Top2 poison ETP, Ph-6DNM-NH3, 6DNM-NH3, and 6DNM-Pyr and assessed for their ability to stabilize Top2cc. […] In a similar fashion, next investigated was the mode of Top1 inhibition using the ICE assay (FIG. 3b).

[2] = Homo sapiens, MDA-MB-231, 72 h, SRB assay, 72 hour compound exposure, read-out: MDA-MB-231 IC50
[3] = Homo sapiens, MDA-MB-231, 72 h, Breast cancer, SRB assay, read-out: 72 hour IC50, MDA-MB-231
[4] = SRB assay, 72 hour compound exposure, read-out: MDA-MB-231 IC50

T1 sequence (P11388 whole entry): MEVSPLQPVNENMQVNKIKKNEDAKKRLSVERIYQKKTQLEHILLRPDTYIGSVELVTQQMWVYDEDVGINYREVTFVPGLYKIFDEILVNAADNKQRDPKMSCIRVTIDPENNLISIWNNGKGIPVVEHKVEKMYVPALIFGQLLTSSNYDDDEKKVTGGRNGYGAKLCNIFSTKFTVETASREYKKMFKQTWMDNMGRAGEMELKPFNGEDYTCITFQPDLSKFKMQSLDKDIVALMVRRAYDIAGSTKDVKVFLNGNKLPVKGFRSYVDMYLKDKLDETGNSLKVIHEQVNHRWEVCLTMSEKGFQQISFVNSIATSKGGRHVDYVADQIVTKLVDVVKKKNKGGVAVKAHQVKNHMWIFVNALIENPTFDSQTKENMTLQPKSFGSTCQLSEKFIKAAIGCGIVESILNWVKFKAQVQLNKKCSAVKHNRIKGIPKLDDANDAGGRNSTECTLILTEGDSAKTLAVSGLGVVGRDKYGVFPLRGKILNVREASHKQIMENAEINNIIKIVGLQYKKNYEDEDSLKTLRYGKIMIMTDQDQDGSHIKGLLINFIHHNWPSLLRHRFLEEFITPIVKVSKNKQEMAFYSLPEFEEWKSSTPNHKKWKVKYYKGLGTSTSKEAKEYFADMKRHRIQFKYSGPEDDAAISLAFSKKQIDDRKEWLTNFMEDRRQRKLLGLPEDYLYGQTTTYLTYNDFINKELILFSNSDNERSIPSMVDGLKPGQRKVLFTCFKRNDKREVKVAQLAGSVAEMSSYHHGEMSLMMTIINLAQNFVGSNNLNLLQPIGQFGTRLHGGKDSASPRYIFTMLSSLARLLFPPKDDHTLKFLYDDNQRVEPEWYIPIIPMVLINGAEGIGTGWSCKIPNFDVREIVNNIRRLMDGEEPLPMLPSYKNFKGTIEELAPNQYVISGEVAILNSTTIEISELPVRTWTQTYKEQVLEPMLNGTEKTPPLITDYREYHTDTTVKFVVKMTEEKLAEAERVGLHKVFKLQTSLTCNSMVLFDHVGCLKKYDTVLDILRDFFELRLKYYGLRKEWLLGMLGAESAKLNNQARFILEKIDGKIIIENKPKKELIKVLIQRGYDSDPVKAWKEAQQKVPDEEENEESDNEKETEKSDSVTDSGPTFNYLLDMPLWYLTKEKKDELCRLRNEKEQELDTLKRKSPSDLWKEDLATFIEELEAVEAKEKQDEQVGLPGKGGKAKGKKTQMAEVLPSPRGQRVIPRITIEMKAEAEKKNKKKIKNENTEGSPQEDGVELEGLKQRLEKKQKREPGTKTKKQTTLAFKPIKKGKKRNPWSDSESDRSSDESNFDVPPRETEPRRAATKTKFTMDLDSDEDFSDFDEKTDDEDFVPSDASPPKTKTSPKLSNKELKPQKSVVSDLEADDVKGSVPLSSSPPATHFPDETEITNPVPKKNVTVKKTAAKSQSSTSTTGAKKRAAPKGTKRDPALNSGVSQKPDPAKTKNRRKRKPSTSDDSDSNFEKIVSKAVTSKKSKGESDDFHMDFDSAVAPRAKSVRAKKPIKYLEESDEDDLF

Row | SMILES | MIC (S. aureus) | MIC (MRSA) | MIC (E. coli) | IC50 [1, 2] | further results
1 | O=C(O)c1cn(C2CC2)c2cc(N3CCNCC3)c(F)cc2c1=O [ciprofloxacin, reference compound] | – | – | – | – | Antiproliferative effect against MDA-MB-231 cells ([1]; doses as high as 50 μM): only minimal effects
2 | Cc1cc(=O)n(C)c2c3c4c(cc12)c(C)cc(=O)n4C(CN1CCCCC1)CO3 (stereo not drawn) [Compound 21] | 0.5 µg/mL (≈ 1.27 µM) | – | 4 µg/mL (≈ 10.2 µM) | 17 ± 1 nM | IC50 (panel of cancer cells): 31 nM; IC50 (HeLa): 46 ± 2 nM; IC50 (HOS): 21 ± 3 nM; IC50 (IMR32): 6 ± 1.6 nM; IC50 (ES-2): 22 ± 6 nM; IC50 (HCT-116): 8 ± 1 nM; IC50 [1, 3]: 17 ± 1 nM; IC50 (Jurkat): 33 ± 4 nM; IC50 (HL-60): 55 ± 11 nM; IC50 (H460): 11 ± 2 nM; IC50 (BT-474): 90 ± 10 nM
3 | Cc1cc(=O)n2c3c(c4c(cc13)c1ccccc1c(=O)n4C)OCC2CN1CCCC1 (stereo not drawn) [Compound 22] | 0.25 µg/mL (≈ 0.602 µM) | – | 1 µg/mL (≈ 2.41 µM) | 31 ± 3 nM | IC50 (panel of cancer cells): 55 nM; IC50 (HeLa): 46 ± 2 nM; IC50 (HOS): 16 ± 0.4 nM; IC50 (IMR32): 4.9 ± 0.1 nM; IC50 (ES-2): 23 ± 4 nM; IC50 (HCT-116): 23 ± 3 nM; IC50 [1, 3]: 31 ± 3 nM; IC50 (Jurkat): 69 ± 7 nM; IC50 (HL-60): 94 ± 6 nM; IC50 (H460): 7.2 ± 0.6 nM; IC50 (BT-474): 235 ± 1 nM
4 | Cc1cc(=O)n2c3c(c4c(cc13)c1ccccc1c(=O)n4C)OCC2CN (stereo not drawn) [Compound 16] | – | – | – | – | S. aureus MIC (S. aureus): 1 µg/mL; E. coli MIC (E. coli): 0.25 µg/mL; IC50 [1, 4]: 30 ± 6 nM
5 | Cc1cc(=O)n(C)c2c3c4c(cc12)c(C)cc(=O)n4C(C(N)=O)O3 (stereo not drawn) [Compound 4] | > 16 µg/mL | 4 µg/mL (≈ 12.3 µM) | > 16 µg/mL | 8300 ± 700 nM | –
6 | Cc1cc(=O)n(C)c2c3c4c(cc12)c(C)cc(=O)n4C(C(=O)O)O3 (stereo not drawn) [Compound 5] | > 32 µg/mL | 2 µg/mL (≈ 6.13 µM) | > 32 µg/mL | 3600 ± 600 nM | –
7 | Cc1cc(=O)n(-c2ccccc2)c2c3c4c(cc12)c(C)cc(=O)n4C(CN)CO3 (stereo not drawn) [Compound 13] | > 16 µg/mL | – | > 16 µg/mL | 1600 ± 600 nM | –
8 | Cc1cc(=O)[nH]c2c3c4c(cc12)c(C)cc(=O)n4C(CN)CO3 (stereo not drawn) [Compound 11] | 4 µg/mL (≈ 12.8 µM) | – | 2 µg/mL (≈ 6.42 µM) | 860 ± 70 nM | –
9 | CCOC(=O)C1Oc2c3c(cc4c(C)cc(=O)n1c24)c(C)cc(=O)n3C (stereo not drawn) [Compound 3] | > 16 µg/mL | 0.5 µg/mL (≈ 1.41 µM) | > 16 µg/mL | > 10000 nM | Activity against MRSA (MRSA): remains effective against MRSA
10 | Cc1cc(=O)n(C)c2c3c4c(cc12)c(C)cc(=O)n4C(CN)CO3 (stereo not drawn) [Compound 18] | – | – | – | – | S. aureus MIC (S. aureus): 0.5 µg/mL; E. coli MIC (E. coli): 0.25 µg/mL; IC50 [1, 4]: 200 ± 10 nM
11 | Cc1cc(=O)n2c3c(c4c(cc13)c1ccccc1c(=O)n4C)OCC2CN (stereo not drawn) [Compound 17] | – | – | – | – | S. aureus MIC (S. aureus): 4 µg/mL; E. coli MIC (E. coli): 2 µg/mL; IC50 [1, 4]: 130 ± 30 nM
12 | COc1cc([C@@H]2c3cc4c(cc3[C@@H](O[C@@H]3O[C@@H]5CO[C@@H](C)O[C@H]5[C@H](O)[C@H]3O)[C@H]3COC(=O)[C@H]23)OCO4)cc(OC)c1O [ETP, etoposide, reference compound] | – | – | – | – | Accumulation of Top2cc (ICE assay) (Top2cc): resulted in the accumulation of Top2cc; Antiproliferative effect against MDA-MB-231 cells ([1]; FIG. 1, SRB assay, 72 hour): sensitive
13 | Cc1cc(=O)n(C)c2c3c4c(cc12)c(C)cc(=O)n4C(CN)CO3 (stereo not drawn) [Compound 19] | – | – | – | – | S. aureus MIC (S. aureus): 32 µg/mL; E. coli MIC (E. coli): >16 µg/mL; IC50 [1, 4]: 4000 ± 800 nM
14 | COc1cccc2c1C(=O)c1c(O)c3c(c(O)c1C2=O)C[C@@](O)(C(=O)CO)C[C@@H]3O[C@H]1C[C@H](N)[C@H](O)[C@H](C)O1 [Doxorubicin, doxorubicin, reference compound] | – | – | – | – | IC50 (panel of cancer cells): 55 nM; IC50 (HeLa): 24 ± 9 nM; IC50 (HOS): 19 ± 7 nM; IC50 (IMR32): 2.9 ± 0.4 nM; IC50 (ES-2): 32 ± 3 nM; Antiproliferative effect against MDA-MB-231 cells ([1]; FIG. 1, SRB assay, 72 hour): sensitive; IC50 [1, 3]: 21 ± 2 nM; IC50 (Jurkat): 17 ± 3 nM; IC50 (HL-60): 84 ± 11 nM; IC50 (H460): 6.1 ± 1 nM; IC50 (BT-474): 260 ± 70 nM

More lines, main results first:

Row | MIC (S. aureus) | MIC (MRSA) | MIC (E. coli) | IC50 [1, 2] | SMILES | further results
15 | 1 µg/mL (≈ 3.37 µM) | 0.06 µg/mL (≈ 0.202 µM) | > 16 µg/mL | 730 ± 90 nM | Cc1cc(=O)n(C)c2c3c4c(cc12)c(C)cc(=O)n4CCO3 [Compound 2] | Antiproliferative effect against MDA-MB-231 cells ([1]; FIG. 1, SRB assay, 72 hour, listed as 6DNM): produces quantitative cell death; also recorded: equipotent to the clinical trial compound vosoraxin
16 | 4 µg/mL (≈ 12.3 µM) | – | 4 µg/mL (≈ 12.3 µM) | 220 ± 60 nM | Cc1cc(=O)n(CCN)c2c3c4c(cc12)c(C)cc(=O)n4CCO3 [Compound 12] | –
17 | 4 µg/mL (≈ 14.2 µM) | – | > 32 µg/mL | 1600 ± 200 nM | Cc1cc(=O)[nH]c2c3c4c(cc12)c(C)cc(=O)n4CCO3 [Compound 10] | –
18 | 32 µg/mL (≈ 87.1 µM) | 0.5 µg/mL (≈ 1.36 µM) | > 16 µg/mL | > 10000 nM | CC(=O)NCC1COc2c3c(cc4c(C)cc(=O)n1c24)c(C)cc(=O)n3C (stereo not drawn) [Compound 8] | –
19 | 2 µg/mL (≈ 7.08 µM) | 0.03 µg/mL (≈ 0.106 µM) | > 16 µg/mL | 1100 ± 200 nM | Cc1cc(=O)n(C)c2c3c4c(cc12)c(C)cc(=O)n4CO3 [Compound 1] | –
20 | > 16 µg/mL | 16 µg/mL (≈ 45.2 µM) | > 32 µg/mL | > 10000 nM | Cc1cc(=O)n(C)c2c3c4c(cc12)c(C)cc(=O)n4C(CC(=O)O)CO3 (stereo not drawn) [Compound 6] | –
21 | 16 µg/mL (≈ 49 µM) | 0.25 µg/mL (≈ 0.766 µM) | > 16 µg/mL | > 10000 nM | Cc1cc(=O)n(C)c2c3c4c(cc12)c(C)cc(=O)n4C(CO)CO3 (stereo not drawn) [Compound 7] | Activity against MRSA (MRSA): remains effective against MRSA
22 | 2 µg/mL (≈ 6.02 µM) | 0.5 µg/mL (≈ 1.5 µM) | > 16 µg/mL | 930 ± 400 nM | Cc1cc(=O)n2c3c(c4c(cc13)c1ccccc1c(=O)n4C)OCC2 [Compound 14] | –
